Experimental data reported in the supplement of paper PMC11451515.

System: SEM cells
Experiment: cell viability relative to DMSO control; higher = less cytotoxic
Conditions: 48 h
Summary of the method: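 NOMO1 or SEM (500 cells/well) or P12-Ichikawa (1000 cells/well) leukemia cells were adapted for at least four passages in each medium. They were seeded in 1536-well plates (5 μl) and pin-dosed with library compounds in DMSO over an 11-point threefold series, 47 μM to 0.79 nM. CellTiter-Glo One luminescence was read after 48 h at 37°C. Viability is the per-plate percentage relative to DMSO wells, with cell-free wells as background.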

[1] = RPMI 5 mM glucose + 10% FBS, 0.000781 µM
[2] = RPMI 5 mM glucose + 10% FBS, 0.00234 µM
[3] = RPMI 5 mM glucose + 10% FBS, 0.00702 µM
[4] = RPMI 5 mM glucose + 10% FBS, 0.0211 µM
[5] = RPMI 5 mM glucose + 10% FBS, 0.0632 µM
[6] = RPMI 5 mM glucose + 10% FBS, 0.19 µM
[7] = RPMI 5 mM glucose + 10% FBS, 0.569 µM
[8] = RPMI 5 mM glucose + 10% FBS, 1.71 µM
[9] = RPMI 5 mM glucose + 10% FBS, 5.12 µM
[10] = RPMI 5 mM glucose + 10% FBS, 15.4 µM
[11] = RPMI 5 mM glucose + 10% FBS, 46.1 µM
[12] = HPLM + 10% dialyzed FBS, 0.000781 µM
[13] = HPLM + 10% dialyzed FBS, 0.00234 µM
[14] = HPLM + 10% dialyzed FBS, 0.00702 µM
[15] = HPLM + 10% dialyzed FBS, 0.0211 µM
[16] = HPLM + 10% dialyzed FBS, 0.0632 µM
[17] = HPLM + 10% dialyzed FBS, 0.19 µM
[18] = HPLM + 10% dialyzed FBS, 0.569 µM
[19] = HPLM + 10% dialyzed FBS, 1.71 µM
[20] = HPLM + 10% dialyzed FBS, 5.12 µM
[21] = HPLM + 10% dialyzed FBS, 15.4 µM
[22] = HPLM + 10% dialyzed FBS, 46.1 µM
[23] = RPMI 5 mM glucose + 10% dialyzed FBS, 0.000781 µM
[24] = RPMI 5 mM glucose + 10% dialyzed FBS, 0.00234 µM
[25] = RPMI 5 mM glucose + 10% dialyzed FBS, 0.00702 µM
[26] = RPMI 5 mM glucose + 10% dialyzed FBS, 0.0211 µM
[27] = RPMI 5 mM glucose + 10% dialyzed FBS, 0.0632 µM
[28] = RPMI 5 mM glucose + 10% dialyzed FBS, 0.19 µM
[29] = RPMI 5 mM glucose + 10% dialyzed FBS, 0.569 µM
[30] = RPMI 5 mM glucose + 10% dialyzed FBS, 1.71 µM
[31] = RPMI 5 mM glucose + 10% dialyzed FBS, 5.12 µM
[32] = RPMI 5 mM glucose + 10% dialyzed FBS, 15.4 µM
[33] = RPMI 5 mM glucose + 10% dialyzed FBS, 46.1 µM

| Compound | cell viability [1] | cell viability [2] | cell viability [3] | cell viability [4] | cell viability [5] | cell viability [6] | cell viability [7] | cell viability [8] | cell viability [9] | cell viability [10] | cell viability [11] | cell viability [12] | cell viability [13] | cell viability [14] | cell viability [15] | cell viability [16] | cell viability [17] | cell viability [18] | cell viability [19] | cell viability [20] | cell viability [21] | cell viability [22] | cell viability [23] | cell viability [24] | cell viability [25] | cell viability [26] | cell viability [27] | cell viability [28] | cell viability [29] | cell viability [30] | cell viability [31] | cell viability [32] | cell viability [33] |
| --- | --- | --- | --- | --- | --- | --- | --- | --- | --- | --- | --- | --- | --- | --- | --- | --- | --- | --- | --- | --- | --- | --- | --- | --- | --- | --- | --- | --- | --- | --- | --- | --- | --- |
| CO[C@H]1CCC(O[C@H]2C[C@H]([C@]3(C)CC[C@]4(C[C@H](O)[C@@H](C)[C@@H]([C@@H](C)/C=C(\C)C(=O)[C@H](C)C[C@H](C)C(=O)[O-])O4)O3)O[C@]3(O[C@@H]([C@H]4O[C@@](O)(CO)[C@H](C)C[C@@H]4C)C[C@@H]3C)[C@@H]2C)O[C@@H]1C (some centres undefined) | 121% | 119% | 112% | 108% | 117% | 128% | 98.3% | 66.6% | 29.8% | 18.7% | 14.3% |  |  |  |  |  |  |  |  |  |  |  |  |  |  |  |  |  |  |  |  |  |  |
| CCCCCNC(=N)N/N=C/c1c[nH]c2ccc(OC)cc12 |  |  |  |  |  |  |  |  |  |  |  | 112% | 119% | 114% | 128% | 108% | 130% | 115% | 124% | 106% | 48% | 31.2% | 111% | 118% | 115% | 110% | 117% | 117% | 130% | 122% | 99.1% | 56.7% | 36.6% |
| Clc2cccc(Cl)c2\N=C1/NCCN1 | 92.7% | 103% | 9.62% | 119% | 106% | 115% | 105% | 112% | 112% | 119% | 110% | 76.6% | 98.6% | 28.8% | 105% | 90.8% | 116% | 119% | 108% | 114% | 122% | 113% | 93.3% | 116% | 28.5% | 126% | 131% | 132% | 127% | 130% | 131% | 117% | 138% |
| N[S+](=O)([O-])c1ccc(Nc2nc(OCC3CCCCC3)c3[nH]cnc3n2)cc1 |  |  |  |  |  |  |  |  |  |  |  | 103% | 117% | 106% | 113% | 101% | 115% | 43% | 24% | 23.8% | 16.4% | 3.57% | 109% | 134% | 114% | 120% | 112% | 109% | 49.6% | 21% | 21.2% | 14.4% | 2.04% |
| C[C@]1(O)CC(C1)C2=NC(=C3[N]2C=CN=C3N)C4=CC5=C(C=C4)C=CC(=N5)C6=CC=CC=C6 (centres undefined) | 95.8% | 96.8% | 105% | 103% | 105% | 66.4% | 68.8% | 42.2% | 16.6% | 3.06% | 1.58% | 77.3% | 81.7% | 87.6% | 90.4% | 87.1% | 67.6% | 76% | 47.2% | 26.5% | 3.17% | 2.38% | 77.7% | 67.5% | 80.7% | 84% | 87.2% | 55.8% | 72.5% | 42.7% | 24.3% | 3.02% | 1.93% |
| CC[C@H]1OC(=O)[C@H](C)[C@@H](O[C@H]2C[C@@](C)(OC)[C@@H](O)[C@H](C)O2)[C@H](C)[C@@H](O[C@@H]2O[C@H](C)C[C@H](N(C)C)[C@H]2O)[C@](C)(OC)C[C@@H](C)C(=O)[C@H](C)[C@@H](O)[C@]1(C)O | 97% | 102% | 96% | 99% | 103% | 106% | 105% | 95.8% | 90.4% | 93.4% | 84.7% | 96.8% | 95.3% | 98.4% | 98.4% | 103% | 91.7% | 93.8% | 97.3% | 84.6% | 92.7% | 87.6% | 105% | 111% | 111% | 101% | 110% | 105% | 117% | 114% | 82.4% | 93% | 83.2% |
| CCC(CCCC)COC(=O)C(\C#N)=C(\c1ccccc1)c2ccccc2 (centres undefined) | 79.8% | 44% | 99% | 86.1% | 94.1% | 96.6% | 96.2% | 97.8% | 95.6% | 91.6% | 88.9% | 91.6% | 55.3% | 90.3% | 89.3% | 98.8% | 93.9% | 95.9% | 90.6% | 110% | 99.6% | 86.3% | 88.3% | 46.3% | 103% | 99.7% | 99.9% | 90.3% | 107% | 86% | 91.5% | 106% | 107% |
| O=C1NC(=O)/C(=C/c2ccc3nccnc3c2)S1 | 120% | 136% | 115% | 126% | 136% | 120% | 128% | 115% | 73% | 99.5% | 103% | 117% | 123% | 128% | 114% | 120% | 113% | 109% | 105% | 97% | 104% | 102% |  |  |  |  |  |  |  |  |  |  |  |
